Measurements from patent publication US9686985B2, “Fungicide N-cycloalkyl-N-bicyclicmethylene-carboxamide derivatives” (BAYER INTELLECTUAL PROPERTY GMBH, priority 2012, dated 2017).

Legend:
[1] = log P by HPLC on reversed-phase column (EEC Directive 79/831 Annex V.A8); assay type: physicochemical; details: for logP: Table 1, HPLC C18, 40° C., 0.1% aqueous formic acid and acetonitrile gradient
Experimental: In table 1, the log P values were determined in accordance with EEC Directive 79/831 Annex V.A8 by HPLC (High Performance Liquid Chromatography) on a reversed-phase column (C 18), using the method described below: Temperature: 40° C.; Mobile phases: 0.1% aqueous formic acid and acetonitrile; linear gradient from 10% acetonitrile to 90% acetonitrile. Calibration was carried out using unbranched alkan-2-ones (comprising 3 to 16 carbon atoms) with known log P values (determination of the log P values by the retention times using linear interpolation between two successive alkanones). lambda-max-values were determined using UV-spectra from 200 nm to 400 nm and the peak values of the chromatographic signals.

[2] = test system: Sphaerotheca fuliginea; assay: Example B: in vivo preventive test on Sphaerotheca fuliginea (powdery mildew on cucurbits); details: table B; 500 ppm; gherkin plants; grading 12 days after contamination
Experimental: Example B: In Vivo Preventive Test on Sphaerotheca fuliginea (Powdery Mildew on Cucurbits) […] Gherkin plants (“Vert petit de Paris” variety), sown in starter cups on a 50/50 peat soil-pozzolana substrate and grown at 24° C., are treated at the Z11 cotyledon stage by spraying with the active ingredient prepared as described above. Plants, used as controls, are treated with the mixture of acetone/tween/DMSO/water not containing the active material. After 24 hours, the plants are contaminated by spraying the cotyledons with an aqueous suspension of Sphaerotheca fuliginea spores (100 000 spores per mL). The spores are collected from infected plants. The contaminated gherkin plants are incubated at about 20° C. and at 70-80% relative humidity. Grading (% of efficacy) is carried out 12 days after the contamination, in comparison with the control plants.

[3] = test system: Uromyces appendiculatus; assay: Example G: in vivo preventive test on Uromyces appendiculatus (bean rust); details: bean plants
Experimental: Example G: In Vivo Preventive Test on Uromyces appendiculatus (Bean Rust) […] Bean plants (“Saxa” variety), sown in starter cups on a 50/50 peat soil pozzolana substrate and grown at 24° C., are treated at the 2 leaf stage (9 cm height) by spraying with the active ingredient prepared as described above. Plants, used as controls, are treated with the mixture of acetone/tween/DMSO/water not containing the active material. After 24 hours, the plants are contaminated by spraying the leaves with an aqueous suspension of Uromyces appendiculatus spores (150 000 spores per mL). The spores are collected from infected plants and are suspended in water containing 2.5 mL/L of Tween 80 at 10%. The contaminated bean plants are incubated for 24 hours at 20° C. and at 100% relative humidity, and then for 10 days at 20° C. and at 70-80% relative humidity. Grading (% of efficacy) is carried out 11 days after the contamination, in comparison with the control plants.

[4] = test system: Pyrenophora teres; assay: Example N: in vivo preventive test on Pyrenophora teres (barley); details: table N; 500 ppm; barley plants; grading 14 days after contamination
Experimental: Example N: In Vivo Preventive Test on Pyrenophora teres (Barley) […] Barley plants (“Plaisant” variety), sown in starter cups on a 50/50 peat soil pozzolana substrate and grown at 22° C., are treated at the 1 leaf stage (10 cm height) by spraying with the active ingredient prepared as described above. Plants, used as controls, are treated with the mixture of acetone/tween/DMSO/water not containing the active material. After 24 hours, the plants are contaminated by spraying the leaves with an aqueous suspension of Pyrenophora teres spores (12 000 spores per mL). The spores are collected from a 12-day-old culture. The contaminated barley plants are incubated for 48 hours at 20° C. and at 100% relative humidity, and then for 12 days at 20° C. at 70-80% relative humidity. Grading (% of efficacy) is carried out 14 days after the contamination, in comparison with the control plants.

[5] = test system: Puccinia recondita; assay: Example R: in vivo preventive test on Puccinia recondita (brown rust on wheat); details: table R; 500 ppm; wheat plants; grading 12 days after contamination
Experimental: Example R: In Vivo Preventive Test on Puccinia recondita (Brown Rust on Wheat) […] Wheat plants (“Scipion” variety), sown in starter cups on a 50/50 peat soil pozzolana substrate and grown at 22° C., are treated at the 1 leaf stage (10 cm height) by spraying with the active ingredient prepared as described above. Plants, used as controls, are treated with the mixture of acetone/tween/DMSO/water not containing the active material. After 24 hours, the plants are contaminated by spraying the leaves with an aqueous suspension of Puccinia recondita spores (100 000 spores per mL). The spores are collected from an infected plant and are suspended in water containing 2.5 mL/L of Tween 80 at 10%. The contaminated wheat plants are incubated for 24 hours at 20° C. and at 100% relative humidity, and then for 10 days at 20° C. and at 70-80% relative humidity. Grading (% of efficacy) is carried out 12 days after the contamination, in comparison with the control plants.

[6] = test system: Alternaria brassicae; assay: Example D: in vivo preventive test on Alternaria brassicae (leaf spot on radish); details: table D; 500 ppm; radish plants; grading 6 days after contamination
Experimental: Example D: In Vivo Preventive Test on Alternaria brassicae (Leaf Spot on Radish) […] Radish plants (“Pernod Clair” variety), sown in starter cups on a 50/50 peat soil pozzolana substrate and grown at 17° C., are treated at the cotyledon stage by spraying with the active ingredient prepared as described above. Plants, used as controls, are treated with the mixture of acetone/tween/DMSO/water not containing the active material. After 24 hours, the plants are contaminated by spraying the cotyledons with an aqueous suspension of Alternaria brassicae spores (50 000 spores per mL). The spores are collected from a 15-day-old culture. The contaminated radish plants are incubated at 20° C. and at 100% relative humidity. Grading (% of efficacy) is carried out 6 days after the contamination, in comparison with the control plants.

[7] = test system: Septoria tritici; assay: Example L: in vivo preventive test on Septoria tritici (wheat); details: table L; 500 ppm; wheat plants; grading 24 days after contamination
Experimental: Example L: In Vivo Preventive Test on Septoria tritici (Wheat) […] Wheat plants (“Scipion” variety), sown in starter cups on a 50/50 peat soil pozzolana substrate and grown at 22° C., are treated at the 1 leaf stage (10 cm height) by spraying with the active ingredient prepared as described above. Plants, used as controls, are treated with the mixture of acetone/tween/DMSO/water not containing the active material. After 24 hours, the plants are contaminated by spraying the leaves with an aqueous suspension of cryopreserved Septoria tritici spores (500 000 spores per mL). The contaminated wheat plants are incubated for 72 hours at 18° C. and at 100% relative humidity, and then for 21 days at 90% relative humidity. Grading (% of efficacy) is carried out 24 days after the contamination, in comparison with the control plants.

[8] = test system: Botrytis cinerea; assay: Example S: in vivo preventive test on Botrytis cinerea (grey mould); details: table S; 500 ppm; gherkin plants; grading 4 to 5 days after contamination
Experimental: Example S: In Vivo Preventive Test on Botrytis cinerea (Grey Mould) […] Gherkin plants (“Vert petit de Paris” variety), sown in starter cups on a 50/50 peat soil pozzolana substrate and grown at 24° C., are treated at the Z11 cotyledon stage by spraying with the active ingredient prepared as described above. Plants, used as controls, are treated with the mixture of acetone/tween/DMSO/water not containing the active material. After 24 hours, the plants are contaminated by spraying the cotyledons with an aqueous suspension of cryopreserved Botrytis cinerea spores (50 000 spores per mL). The spores are suspended in a nutrient solution composed of 10 g/L of PDB, 50 g/L of D-Fructose, 2 g/L of NH4NO3 and 1 g/L of KH2PO4. The contaminated gherkin plants are incubated at 17° C. and at 90% relative humidity. Grading (% of efficacy) is carried out 4 to 5 days after the contamination, in comparison with the control plants.

[9] = table G1, 500 ppm, grading 11 days after contamination

Row | Compound | logP [1] | Efficacy [2] [%] | Efficacy [3, 9] [%] | Efficacy [4] [%] | Efficacy [5] [%] | Efficacy [6] [%] | Efficacy ([3]; table G2, dose 100 ppm) [%] | Efficacy ([3]; table G2, dose 500 ppm) [%] | Efficacy [7] [%] | Efficacy [8] [%] | chromatographic logP [1]
1 | Cn1nc(C(F)F)c(C(=O)N(CC2CCc3ccccc32)C2CC2)c1Cl (stereo not shown) [I.1] | 3.51 | 83 | 72 | 86 | 88 | – | – | – | – | – | –
2 | Cn1nc(C(F)F)c(C(=O)N(CC2CCc3ccccc32)C2CC2)c1F (stereo not shown) [I.2] | 3.35 | 100 | 100 | 100 | 100 | 100 | 88 | 100 | 100 | – | –
3 | Cc1cccc2c1CCC2CN(C(=O)c1c(C(F)F)nn(C)c1Cl)C1CC1 (stereo not shown) [I.4] | 3.87 | – | – | 71 | – | 75 | – | – | 79 | – | –
4 | Cc1ccc2c(c1)CCC2CN(C(=O)c1c(C(F)F)nn(C)c1Cl)C1CC1 (stereo not shown) [I.5] | 3.94 | 100 | – | 86 | 75 | – | – | – | – | – | –
5 | Cc1ccc2c(c1)CCC2CN(C(=O)c1c(C(F)F)nn(C)c1F)C1CC1 (stereo not shown) [I.6] | 3.76 | 100 | 100 | 100 | 100 | 97 | 69 | 100 | 97 | – | –
6 | Cn1nc(C(F)F)c(C(=O)N(CC2CCc3c(F)cccc32)C2CC2)c1F (stereo not shown) [I.7] | 3.39 | 100 | 100 | 97 | 94 | 97 | 98 | 100 | 93 | – | –
7 | Cn1nc(C(F)F)c(C(=O)N(CC2CC(C)(C)c3ccccc32)C2CC2)c1F (stereo not shown) [I.9] | 3.94 | 100 | – | 97 | 100 | 100 | 100 | – | 97 | – | –
8 | Cn1nc(C(F)F)c(C(=O)N(CC2CC(C)(C)c3ccccc32)C2CC2)c1Cl (stereo not shown) [I.10] | 4.08 | 100 | 99 | 86 | 88 | 92 | – | – | 79 | – | –
9 | Cn1nc(C(F)F)c(C(=O)N(CC2CCc3cc(Cl)ccc32)C2CC2)c1F (stereo not shown) [I.12] | 3.83 | 100 | 100 | 100 | 81 | 100 | 19 | 100 | 93 | – | –
10 | Cn1nc(C(F)F)c(C(=O)N(CC2CCc3cc(Cl)ccc32)C2CC2)c1Cl (stereo not shown) [I.13] | 3.99 | 78 | – | 86 | – | 75 | – | – | – | – | –
11 | Cn1nc(C(F)F)c(C(=O)N(CC2CCc3ccc(C(F)(F)F)cc32)C2CC2)c1Cl (stereo not shown) [I.16] | 4.04 | 100 | 100 | – | 88 | – | – | – | 98 | 100 | –
12 | Cn1nc(C(F)F)c(C(=O)N(CC2CCc3c(Cl)cc(Cl)cc32)C2CC2)c1F (stereo not shown) [I.18] | 4.39 | 100 | 100 | 100 | 94 | 100 | – | – | 93 | – | –
13 | Cn1nc(C(F)F)c(C(=O)N(CC2CCc3c(Cl)cc(Cl)cc32)C2CC2)c1Cl (stereo not shown) [I.19] | 4.59 | – | 100 | 71 | 88 | 92 | – | – | – | – | –
14 | COc1cccc2c1CCCC2CN(C(=O)c1c(C(F)F)nn(C)c1F)C1CC1 (stereo not shown) [I.26, N-cyclopropyl-3-(difluoromethyl)-5-fluoro-N-[(5-methoxy-1,2,3,4-tetrahydronaphthalen-1-yl)methyl]-1-methyl-1H-pyrazole-4-carboxamide] | – | 100 | – | 100 | – | 100 | – | – | – | 100 | 3.65
15 | COc1cccc2c1CCCC2CN(C(=S)c1c(C(F)F)nn(C)c1F)C1CC1 (stereo not shown) [I.27] | 4.46 | 80 | – | 71 | – | 93 | – | – | 97 | – | –
16 | Cn1nc(C(F)F)c(C(=O)N(CC2CCCc3cccc(Cl)c32)C2CC2)c1F (stereo not shown) [I.28] | 4.09 | 100 | 88 | 94 | – | 100 | – | – | 100 | 100 | –
17 | Cn1nc(C(F)F)c(C(=O)N(CC2CSCc3ccccc32)C2CC2)c1F (stereo not shown) [I.34] | 3.21 | 90 | – | 94 | – | 100 | – | – | 93 | 100 | –
18 | Cn1nc(C(F)F)c(C(=O)N(CC2CCSc3ccc(F)cc32)C2CC2)c1F (stereo not shown) [I.35] | 3.44 | 80 | 100 | 98 | 78 | 88 | – | – | – | 100 | –
